# Like-named read-outs stand apart in the source and are kept apart here.
# Test system: epithelial carcinoma A431 cell line
# Test: MTT Cell Proliferation Assay, A431 cells
# Assay type: cell-based
# Details: for IC50: Homo sapiens, A-431, Table 11
# Method in brief: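 Viability was measured by mitochondrial MTT reduction after cells were exposed to compound for 3 days in reduced-serum medium. Inhibition was calculated per plate against 0.5% DMSO controls.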
smiles,measurement,setting,value
CCc1cc2c(CN3CCN(Cc4ccc5c(c4)OCO5)CC3)cc(=O)oc2cc1O [AD4-1734],IC50,"first of x/y(ratio): A431, unit inferred, read-out: MTT Follow-up (first value)",22.1 µM
same,IC50,"first of x/y(ratio): A431, unit not printed (doses in μM), read-out: MTT Screen (first value)",22.8 µM
same,activity in A431,standard at 23.5 μM final concentration,less than 100%
same,activity in A431,standard at 31.125 μM final concentration,100%
Cc1cc(C)cc(NS(=O)(=O)c2ccc(NC(=S)Nc3ccccc3)cc2)c1 [AD4-11091],MTT assay (first value),"Table 10, first of x/y(ratio): A431, three day treatment, unit not printed (doses in μM)",non-convergent

# From patent publication US20140179681A1, “METHODS AND COMPOSITIONS OF TARGETED DRUG DEVELOPMENT” (priority 2010, published 2014)
